# Laboratory results reported in patent US20070149505A1, “Method of Inhibiting Adhesion Formation” (SmithKline Beecham Corporation, priority 2001, published 2007).
# “And” between values parts separate entries of the source, which are not always exact repeats. Equal values may be shown once.
# System: uterine horn adhesions
# Assay: rabbit uterine horn model of adhesion formation, oral + local (gel) COMPOUND 1 study
# Assay type: in vivo, New Zealand White rabbits
# Set-up: key to tenacity of the adhesions score (in parentheses), Right Horn, Bowel / tenacity of the adhesions score (in parentheses), Right Horn, Itself / tenacity of the adhesions score (in parentheses), Left Horn, Itself / tenacity of the adhesions score (in parentheses), Right Horn, Left / tenacity of the adhesions score (in parentheses), Left Horn, Bowel / tenacity of the adhesions score (in parentheses), Left Horn, Right / tenacity of the adhesions score (in parentheses), Right Horn, Bladder / tenacity of the adhesions score (in parentheses), Left Horn, Bladder: 0=No Adhesions; 1=mild, easily dissectable adhesions; 2=moderate adhesions; non-dissectable, does not tear the organ; 3=dense adhesions; non-dissectable, tears organ when removed; key to Overall score: overall adhesion score; 1 = mild, 1.5+ slightly tougher/more extensive
# Conditions: for Overall, (group summary): group value ± spread, overall scores analyzed by rank order analysis
# Description: The compounds of the instant invention are tested in known models of adhesion formation. These test systems include a rabbit sidewall model of adhesion formation as described in Rogers, et al., J. Invest. Surg., 9:388-391 (1996) and Rodgers, et al., […], 69(3):403-408 (1998); a rat model for adhesion formation as described in Harris, et al., Surgery, 117:663-669 (1995); and a rabbit animal model used to examine laparoscopic adhesion prevention. The rabbit uterine horn model may also be used to test the use of the instant vitronectin inhibiting compounds as inhibitors of adhesion formation. The experimental details and results using this model are detailed below.
# Animals: New Zealand White rabbits, 2.4-2.7 kg, were purchased and quarantined for at least 2 days prior to use. The rabbits were randomized into appropriate control and treatment groups (see experimental designs below). The rabbits were housed on a 12:12 light:dark cycle with food and water available ad libitum. Each treatment group in all studies contained 8-10 animals.
# Adhesion Model: The animals that received COMPOUND 1 or vehicle according to the experimental design (below). The rabbits that received placebo at surgery received two doses of vehicle orally. Rabbits were anesthetized with a mixture of 55 mg/kg ketamine hydrochloride and 5 mg/kg Rompum intramuscularly. Following preparation for sterile surgery, a midline laparotomy was performed. The uterine horns were exteriorized and traumatized by abrasion of the serosal surface with gauze until punctate bleeding developed. Ischemia of both uterine horns was induced by removal of the collateral blood supply. The remaining blood supply to the uterine horns was the ascending branches of the utero-vaginal arterial supply of the myometrium. The midline muscle and skin incision were closed.
# After 7 or 14 days, the rabbits were terminated and adhesions were scored on a site and rabbit basis. Specifically, the percentage of the area of the horns adherent to various organs was determined. In addition, the tenacity of the adhesions was scored using the following system:
# 1=mild, easily dissectable adhesions
# 3=dense adhesions; non-dissectable, tears organ when removed
# An overall score which took into account all of the above data was given to each rabbit. The following scoring system was used:
# 0.5+ Light, filmy pelvic adhesions involving only one organ, typically only 1 or 2 small adhesions
# 1.0+ Light, filmy adhesions, not extensive although slightly more extensive than 0.5
# 1.5+ Adhesions slightly tougher and more extensive than a 1 rating
# 2.0+ Tougher adhesions, a little more extensive, uterine horns usually have adhesions to both bowel and bladder
# 2.5+ Same as 2, except the adhesions are usually not filmy at any site and more extensive
# 3.0+ Tougher adhesions than 2, more extensive, both horns are attached to the bowel and bladder, some movement of the uterus possible
# 3.5+ Same as 3, but adhesions slightly more extensive and tougher
# 4.0+ Severe adhesions, both horns attached to the bowel and bladder, unable to move the uterus without tearing the adhesions
# The rabbits were scored by two independent observers that were blinded to the prior treatment of the animal. If there was disagreement as to the score to be assigned to an individual animal, the higher score was given.
# Statistical Analysis: The tenacity and overall scores were analyzed by rank order analysis and analysis of variance on the ranks. The percentage area of the horns involved to the various organs were compared by Student's t test.
# […] received two loading doses of 60 mg/kg COMPOUND 1 orally prior to surgery. At the end of the procedure, the animals received either nothing (surgical control), or 12 ml of placebo (10% CMC) or one of two doses (1 mg/ml or 0.1 mg/ml) of COMPOUND 1 at the site of surgical injury.
# Oral+local study: Two loading doses of COMPOUND 1 (60 mg/kg, po) were administered orally prior to surgery. […]
# [1] = 1 mg/ml COMPOUND 1, 1 Week Necropsy Time, group mean ± spread
# [2] = 1 mg/ml COMPOUND 1, 1 Week Necropsy Time, individual rabbit
# [3] = 1 mg/ml COMPOUND 1, 1 Week Necropsy Time, individual rabbit, dash = site adhesion free
# [4] = 1 mg/ml COMPOUND 1, 2 Week Necropsy Time, group mean ± spread
# [5] = 1 mg/ml COMPOUND 1, 2 Week Necropsy Time, individual rabbit
# [6] = 1 mg/ml COMPOUND 1, 2 Week Necropsy Time, individual rabbit, dash = site adhesion free
# [7] = 1 mg/ml COMPOUND 1, listed after Control/Placebo 1 Week
# [8] = 1 mg/ml COMPOUND 1, listed after Control/Placebo 2 Weeks
smiles,measurement,setting,value
"O=C(O)C[C@@H]1Cc2ccc(OCCCNc3ccccn3)cc2CN(CC(F)(F)F)C1=O [COMPOUND 1, (S)-3-oxo-8-[3-(pyridin-2-ylamino)-1-propyloxy]-2-(2,2,2-trifluoroethyl)-2,3,4,5-tetrahydro-1H-2-benzazepine-4-acetic acid]",% Sites Adhesion Free,"0.1 mg/ml COMPOUND 1, listed after Control/Placebo 2 Weeks",38.75%
same,"% Horn Involved, Left Horn, Bladder",[1],0.0 ± 0.0%
same,"% Horn Involved, Left Horn, Bowel",[1],18.0 ± 4.2%
same,"% Horn Involved, Left Horn, Itself",[1],18.0 ± 4.7%
same,"% Horn Involved, Left Horn, Right",[1],15.0 ± 4.0%
same,"% Horn Involved, Right Horn, Bladder",[1],3.0 ± 1.5%
same,"% Horn Involved, Right Horn, Bowel",[1],19.0 ± 3.8%
same,"% Horn Involved, Right Horn, Itself",[1],10.0 ± 4.2%
same,"% Horn Involved, Right Horn, Left",[1],15.0 ± 4.0%
same,"Overall, (group summary)","1 mg/ml COMPOUND 1, 1 Week Necropsy Time",21.3 ± 3.9
same,Overall score,[2],1.0 (3×) and 0.5 and 1.5 (5×) and 2.0
same,"tenacity of the adhesions score (in parentheses), Left Horn, Bowel",[2],1
same,"tenacity of the adhesions score (in parentheses), Left Horn, Itself",[2],1
same,"tenacity of the adhesions score (in parentheses), Left Horn, Right",[2],1 (6×) and 2
same,"tenacity of the adhesions score (in parentheses), Right Horn, Bladder",[2],1
same,"tenacity of the adhesions score (in parentheses), Right Horn, Bowel",[2],1
same,"tenacity of the adhesions score (in parentheses), Right Horn, Itself",[2],1
same,"tenacity of the adhesions score (in parentheses), Right Horn, Left",[2],1 (6×) and 2
same,"% Horn Involved, Left Horn, Bowel",[3],30% (4×) and 20% (3×)
same,"% Horn Involved, Left Horn, Itself",[3],20% (2×) and 30% (3×) and 10% and 40%
same,"% Horn Involved, Left Horn, Right",[3],20% (2×) and 10% (2×) and 30% (3×)
same,"% Horn Involved, Right Horn, Bladder",[3],10%
same,"% Horn Involved, Right Horn, Bowel",[3],30% (4×) and 10% and 20% (3×)
same,"% Horn Involved, Right Horn, Itself",[3],20% (2×) and 10% (2×) and 40%
same,"% Horn Involved, Right Horn, Left",[3],20% (2×) and 10% (2×) and 30% (3×)
same,"% Horn Involved, Left Horn, Bladder",[4],4.0 ± 2.7%
same,"% Horn Involved, Left Horn, Bowel",[4],17.0 ± 5.2%
same,"% Horn Involved, Left Horn, Itself",[4],18.0 ± 4.2%
same,"% Horn Involved, Left Horn, Right",[4],5.0 ± 3.4%
same,"% Horn Involved, Right Horn, Bladder",[4],4.0 ± 2.2%
same,"% Horn Involved, Right Horn, Bowel",[4],13.0 ± 4.0%
same,"% Horn Involved, Right Horn, Itself",[4],13.0 ± 5.0%
same,"% Horn Involved, Right Horn, Left",[4],5.0 ± 3.4%
same,"Overall, (group summary)","1 mg/ml COMPOUND 1, 2 Week Necropsy Time",21.2 ± 5.5
same,Overall score,[5],1.0 (5×) and 2.5 and 1.5 (2×) and 0.5 and 2.0
same,"tenacity of the adhesions score (in parentheses), Left Horn, Bladder",[5],2 and 1
same,"tenacity of the adhesions score (in parentheses), Left Horn, Bowel",[5],2 (2×) and 1 (4×)
same,"tenacity of the adhesions score (in parentheses), Left Horn, Itself",[5],1 (6×) and 2 (2×)
same,"tenacity of the adhesions score (in parentheses), Left Horn, Right",[5],2 and 1
same,"tenacity of the adhesions score (in parentheses), Right Horn, Bladder",[5],1
same,"tenacity of the adhesions score (in parentheses), Right Horn, Bowel",[5],1 (6×) and 2
same,"tenacity of the adhesions score (in parentheses), Right Horn, Itself",[5],1 (4×) and 2
same,"tenacity of the adhesions score (in parentheses), Right Horn, Left",[5],2 and 1
same,"% Horn Involved, Left Horn, Bladder",[6],20%
same,"% Horn Involved, Left Horn, Bowel",[6],30% (4×) and 10% and 40%
same,"% Horn Involved, Left Horn, Itself",[6],20% (3×) and 30% (2×) and 10% (2×) and 40%
same,"% Horn Involved, Left Horn, Right",[6],30% and 20%
same,"% Horn Involved, Right Horn, Bladder",[6],10% (2×) and 20%
same,"% Horn Involved, Right Horn, Bowel",[6],10% (4×) and 30% (3×)
same,"% Horn Involved, Right Horn, Itself",[6],20% and 30% (2×) and 10% and 40%
same,"% Horn Involved, Right Horn, Left",[6],30% and 20%
same,# Sites Adhesion Free,[7],36
same,% Sites Adhesion Free,[7],45.0%
same,# Sites Adhesion Free,[8],45
same,% Sites Adhesion Free,[8],56.25%
